Test results published in ChEMBL document CHEMBL1142185, “Posaconazole enhances the activity of amphotericin B against Aspergillus hyphae in vitro” (2007).
Converted amounts (≈) assume the structure as drawn.

Assays:
Type in all cases: functional
Aspergillus fumigatus [1] = assay: Antifungal activity against Aspergillus fumigatus conidia
Aspergillus terreus [2] = assay: Antifungal activity against Aspergillus terreus conidia
Aspergillus flavus [3] = assay: Antifungal activity against Aspergillus flavus conidia
Aspergillus niger [4] = assay: Antifungal activity against Aspergillus niger conidia
Aspergillus fumigatus [5] = assay: Antifungal activity against Aspergillus fumigatus hyphae
Aspergillus terreus [6] = assay: Antifungal activity against Aspergillus terreus hyphae
Aspergillus flavus [7] = assay: Antifungal activity against Aspergillus flavus hyphae
Aspergillus niger [8] = assay: Antifungal activity against Aspergillus niger hyphae

SMILES	MIC90 (Aspergillus fumigatus [1]) [µg/mL]	MIC90 (Aspergillus terreus [2]) [µg/mL]	MIC90 (Aspergillus flavus [3]) [µg/mL]	MIC90 (Aspergillus niger [4]) [µg/mL]	MIC90 (Aspergillus fumigatus [5]) [µg/mL]	MIC90 (Aspergillus terreus [6]) [µg/mL]	MIC90 (Aspergillus flavus [7]) [µg/mL]	MIC90 (Aspergillus niger [8]) [µg/mL]
C[C@@H]1[C@H](O)[C@@H](C)/C=C/C=C/C=C/C=C/C=C/C=C/C=C/[C@H](O[C@@H]2O[C@H](C)[C@@H](O)[C@H](N)[C@@H]2O)C[C@@H]2O[C@](O)(C[C@@H](O)C[C@@H](O)[C@H](O)CC[C@@H](O)C[C@@H](O)CC(=O)O[C@H]1C)C[C@H](O)[C@H]2C(=O)O [AMPHOTERICIN B]	0.625 (≈ 0.676 µM)	2.5 (≈ 2.71 µM)	1.25 (≈ 1.35 µM)	1.25 (≈ 1.35 µM)	2.5 (≈ 2.71 µM)	5 (≈ 5.41 µM)	2.5 (≈ 2.71 µM)	5 (≈ 5.41 µM)
CC[C@@H]([C@H](C)O)n1ncn(-c2ccc(N3CCN(c4ccc(OC[C@@H]5CO[C@@](Cn6cncn6)(c6ccc(F)cc6F)C5)cc4)CC3)cc2)c1=O [POSACONAZOLE]	0.125 (≈ 0.178 µM)	0.25 (≈ 0.357 µM)	0.125 (≈ 0.178 µM)	0.25 (≈ 0.357 µM)	0.5 (≈ 0.713 µM)	1 (≈ 1.43 µM)	0.5 (≈ 0.713 µM)	1 (≈ 1.43 µM)
C[C@@H](c1ncncc1F)[C@](O)(Cn1cncn1)c1ccc(F)cc1F [VORICONAZOLE]	0.125 (≈ 0.358 µM)	0.5 (≈ 1.43 µM)	0.5 (≈ 1.43 µM)	0.5 (≈ 1.43 µM)	1 (≈ 2.86 µM)	1 (≈ 2.86 µM)	2 (≈ 5.73 µM)	2 (≈ 5.73 µM)
